pIC50: −log10 of the molar value. The source made the active and inactive calls. The calls are words filed in the database; no cut-off is given here.
Key:
SiHa [1] = assay: Synergistic antiproliferative activity against human SiHa cells assessed as combination index at 0.5 uM incubated for 72 hrs in presence of 10 uM cisplatin by CCK-8 assay; type: functional
SiHa [2] = assay: Antitumor activity against human SiHa cells xenografted in BALB/c nude mouse assessed as reduction in Ki67 protein expression at 2 mg/kg, ip by immunohistochemical analysis; type: functional, organism-based
SiHa [3] = assay: Induction of cell cycle arrest in human SiHa cells assessed as accumulation of cells at G1 pahse at 0.05 uM incubated after 48 hrs by PI staining based flow cytometry (reference value: 83.90 %); type: functional
SiHa [4] = assay: Induction of apoptosis in human SiHa cells assessed as necrotic cells at 0.05 uM incubated after 48 hrs by annexin V-FITC/PI staining based flow cytometry (reference value: 0.08 %); type: functional
SiHa [5] = assay: Synergistic antiproliferative activity against human SiHa cells assessed as combination index at 5 uM incubated for 72 hrs in presence of 3.16 uM cisplatin by CCK-8 assay; type: functional
[6] = target: T1, Protein cereblon/Heat shock protein HSP 90-alpha/Heat shock protein HSP 90-beta (Homo sapiens) (UniProt P07900+P08238+Q96SW2); assay: Protac activity at CRBN/Hsp90 in human Ca-Ski cells assessed as induction of Hsp90 degradation (causing hook effect) at > 0.075 uM incubated for 10 hrs by Western blot analysis; type: cell-based
[7] = Toxicity in BALB/c nude mouse xenografted with human SiHa cells assessed as body weight weight loss at 2 mg/kg, ip; type: organism-based; settings: in vivo
SiHa [8] = assay: Synergistic antiproliferative activity against human SiHa cells assessed as combination index at 1 uM incubated for 72 hrs in presence of 10 uM cisplatin by CCK-8 assay; type: functional
SiHa [9] = assay: Synergistic antiproliferative activity against human SiHa cells assessed as combination index at 1 uM incubated for 72 hrs in presence of 0.03 uM cisplatin by CCK-8 assay; type: functional
[10] = target: T1, Protein cereblon/Heat shock protein HSP 90-alpha/Heat shock protein HSP 90-beta (Homo sapiens); assay: Protac activity at CRBN/Hsp90 in human Ca-Ski cells assessed as induction of Hsp90 degradation at 0.05 uM incubated for 10 hrs by Western blot analysis; type: cell-based
SiHa [11] = assay: Synergistic antiproliferative activity against human SiHa cells assessed as combination index at 5 uM incubated for 72 hrs in presence of 0.1 uM cisplatin by CCK-8 assay; type: functional
SiHa [12] = assay: Synergistic antiproliferative activity against human SiHa cells assessed as combination index at 1 uM incubated for 72 hrs in presence of 0.1 uM cisplatin by CCK-8 assay; type: functional
SiHa [13] = assay: Induction of apoptosis in human SiHa cells assessed as late apoptotic cells at 2.5 uM incubated after 48 hrs by annexin V-FITC/PI staining based flow cytometry (reference value: 6.93 %); type: functional
SiHa [14] = assay: Synergistic antiproliferative activity against human SiHa cells assessed as combination index at 1 uM incubated for 72 hrs in presence of 0.32 uM cisplatin by CCK-8 assay; type: functional
C-33-A = assay: Antiproliferative activity against human C-33-A cells assessed as reduction in cell viability incubated for 72 hrs by CCK-8 assay; type: functional, cell-based
[15] = target: Serine/threonine-protein kinase AKT (Homo sapiens) (UniProt P31751+Q9Y243+P31749); assay: Inhibition of AKT phosphorylation in human SiHa cells incubated for 10 hrs by Western blot analysis; type: cell-based; settings: dose 0.01-1 µM
HeLa = assay: Antiproliferative activity against human HeLa cells assessed as reduction in cell viability incubated for 72 hrs by CCK-8 assay; type: functional, cell-based
SiHa [16] = assay: Induction of apoptosis in human SiHa cells assessed as necrotic cells at 2.5 uM incubated after 48 hrs by annexin V-FITC/PI staining based flow cytometry (reference value: 0.08 %); type: functional
SiHa [17] = assay: Induction of apoptosis in human SiHa cells assessed as increase in apoptotic cells incubated after 48 hrs by annexin V-FITC/PI staining based flow cytometry; type: functional, cell-based; settings: dose 0.05-10 µM
[18] = target: T1, Protein cereblon/Heat shock protein HSP 90-alpha/Heat shock protein HSP 90-beta (Homo sapiens); assay: Protac activity at CRBN/Hsp90 in human SiHa cells assessed as decrease in HER2 protein expression level at 0.05 uM incubated for 10 hrs by Western blot analysis; type: cell-based
SiHa [19] = assay: Synergistic antiproliferative activity against human SiHa cells assessed as combination index at 1 uM incubated for 72 hrs in presence of 0.01 uM cisplatin by CCK-8 assay; type: functional
SiHa [20] = assay: Synergistic antiproliferative activity against human SiHa cells assessed as combination index at 0.1 uM incubated for 72 hrs in presence of 3.16 uM cisplatin by CCK-8 assay; type: functional
SiHa [21] = assay: Synergistic antiproliferative activity against human SiHa cells assessed as combination index at 0.1 uM incubated for 72 hrs in presence of 1 uM cisplatin by CCK-8 assay; type: functional
SiHa [22] = assay: Synergistic antiproliferative activity against human SiHa cells assessed as combination index at 0.5 uM incubated for 72 hrs in presence of 0.1 uM cisplatin by CCK-8 assay; type: functional
SiHa [23] = assay: Induction of apoptosis in human SiHa cells assessed as viable cells at 1 uM incubated after 48 hrs by annexin V-FITC/PI staining based flow cytometry (reference value: 90.4 %); type: functional; settings: read-out: Activity
SiHa [24] = assay: Synergistic antiproliferative activity against human SiHa cells assessed as combination index at 10 uM incubated for 72 hrs in presence of 3.16 uM cisplatin by CCK-8 assay; type: functional
[25] = target: T1, Protein cereblon/Heat shock protein HSP 90-alpha/Heat shock protein HSP 90-beta (Homo sapiens); assay: Protac activity at CRBN/Hsp90 in human SiHa cells assessed as induction of Hsp90 degradation at 1 uM incubated for 8 to 10 hrs by Western blot analysis; type: cell-based; settings: time 8-10 hrs
SiHa [26] = assay: Induction of apoptosis in human SiHa cells assessed as necrotic cells at 10 uM incubated after 48 hrs by annexin V-FITC/PI staining based flow cytometry (reference value: 0.08 %); type: functional
SiHa [27] = assay: Synergistic antiproliferative activity against human SiHa cells assessed as combination index at 0.1 uM incubated for 72 hrs in presence of 31.62 uM cisplatin by CCK-8 assay; type: functional
SiHa [28] = assay: Synergistic antitumor activity against human SiHa cells xenografted in BALB/c nude mouse assessed as reduction in Ki67 protein expression at 2 mg/kg, ip co-treated with cisplatin separately for every two days by immunohistochemical analysis; type: functional, organism-based
SiHa [29] = assay: Antitumor activity against human SiHa cells xenografted in BALB/c nude mouse assessed as tumor growth inhibition at 2 mg/kg, ip; type: functional, organism-based
SiHa [30] = assay: Synergistic antiproliferative activity against human SiHa cells assessed as combination index at 0.75 uM incubated for 72 hrs in presence of 0.32 uM cisplatin by CCK-8 assay; type: functional
SiHa [31] = assay: Synergistic antiproliferative activity against human SiHa cells assessed as combination index at 0.75 uM incubated for 72 hrs in presence of 0.03 uM cisplatin by CCK-8 assay; type: functional
SiHa [32] = assay: Synergistic antiproliferative activity against human SiHa cells assessed as combination index at 0.05 uM incubated for 72 hrs in presence of 0.03 uM cisplatin by CCK-8 assay; type: functional
[33] = target: T1, Protein cereblon/Heat shock protein HSP 90-alpha/Heat shock protein HSP 90-beta (Homo sapiens); assay: Protac activity at CRBN/Hsp90 in human SiHa cells assessed as induction of Hsp90 degradation at 0.05 uM incubated for 2 hrs in presence of lenalidomide by Western blot analysis; type: cell-based

Chain of Serine/threonine-protein kinase AKT (Homo sapiens) (P31749 whole entry, looked up): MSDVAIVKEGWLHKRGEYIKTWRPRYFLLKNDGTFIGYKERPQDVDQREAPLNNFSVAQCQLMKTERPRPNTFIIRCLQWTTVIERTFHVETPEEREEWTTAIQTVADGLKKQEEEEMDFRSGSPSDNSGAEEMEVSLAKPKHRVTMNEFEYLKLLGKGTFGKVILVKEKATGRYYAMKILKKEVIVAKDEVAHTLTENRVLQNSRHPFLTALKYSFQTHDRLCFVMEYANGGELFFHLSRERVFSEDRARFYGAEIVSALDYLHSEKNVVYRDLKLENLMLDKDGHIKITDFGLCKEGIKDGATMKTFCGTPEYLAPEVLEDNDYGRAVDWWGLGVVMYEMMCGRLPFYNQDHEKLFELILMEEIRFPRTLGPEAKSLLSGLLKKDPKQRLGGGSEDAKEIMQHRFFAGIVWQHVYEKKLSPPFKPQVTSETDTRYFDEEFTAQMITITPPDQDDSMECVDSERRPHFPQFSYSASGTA
Chain of Serine/threonine-protein kinase AKT (Homo sapiens) (P31751 whole entry, looked up): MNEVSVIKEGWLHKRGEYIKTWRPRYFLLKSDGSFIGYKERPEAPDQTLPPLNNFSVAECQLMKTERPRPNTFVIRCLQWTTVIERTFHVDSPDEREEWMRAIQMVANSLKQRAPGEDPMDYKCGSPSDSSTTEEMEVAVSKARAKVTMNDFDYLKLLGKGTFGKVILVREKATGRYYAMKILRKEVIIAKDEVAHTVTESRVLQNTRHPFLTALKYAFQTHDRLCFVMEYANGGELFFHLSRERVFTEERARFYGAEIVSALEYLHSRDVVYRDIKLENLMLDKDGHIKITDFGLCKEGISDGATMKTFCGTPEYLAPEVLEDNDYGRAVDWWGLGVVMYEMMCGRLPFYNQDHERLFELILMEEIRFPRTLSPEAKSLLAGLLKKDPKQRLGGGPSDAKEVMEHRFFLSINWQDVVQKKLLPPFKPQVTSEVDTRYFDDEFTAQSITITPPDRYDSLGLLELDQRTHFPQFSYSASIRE
Chain of Serine/threonine-protein kinase AKT (Homo sapiens) (Q9Y243 whole entry, looked up): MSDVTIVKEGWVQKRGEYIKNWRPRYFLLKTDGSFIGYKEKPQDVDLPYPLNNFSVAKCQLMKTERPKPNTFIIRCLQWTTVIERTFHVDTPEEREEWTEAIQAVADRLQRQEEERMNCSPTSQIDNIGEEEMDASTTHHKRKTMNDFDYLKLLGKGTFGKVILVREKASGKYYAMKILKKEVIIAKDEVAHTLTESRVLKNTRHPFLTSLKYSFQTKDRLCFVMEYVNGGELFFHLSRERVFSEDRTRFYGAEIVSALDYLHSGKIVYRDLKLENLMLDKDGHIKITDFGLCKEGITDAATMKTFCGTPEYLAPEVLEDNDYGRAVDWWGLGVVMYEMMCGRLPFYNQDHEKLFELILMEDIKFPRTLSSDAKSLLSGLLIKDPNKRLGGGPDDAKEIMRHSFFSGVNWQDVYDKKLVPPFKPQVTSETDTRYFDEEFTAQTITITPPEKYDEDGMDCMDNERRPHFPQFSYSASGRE

- Activity [6]: inactive
- Activity [10]: Active
- inhibition [15]: Active
- pIC50 (HeLa): 7.10
- Activity [18]: Active
- Activity [25]: Active
- Activity [33]: inactive
Compound: CC1(C)CC(=O)c2c(C(F)(F)F)nn(-c3ccc(C(N)=O)c(N[C@H]4CC[C@H](OC(=O)CNC(=O)CCCCCCCNc5cccc6c5CN(C5CCC(=O)NC5=O)C6=O)CC4)c3)c2C1 (stereo not given in full)
- CI (SiHa [1]): 0.17
- Activity (SiHa [2]): Active
- Activity (SiHa [3]): 78.92%
- Activity (SiHa [4]): 0.1%
- CI (SiHa [5]): 0.65
- Activity [7]: Non-Toxic
- CI (SiHa [8]): 0.17
- CI (SiHa [9]): 0.22
- CI (SiHa [11]): 1.01
- CI (SiHa [12]): 0.21
- Activity (SiHa [13]): 22.71%
- CI (SiHa [14]): 0.2
- pIC50 (C-33-A): 7.15
- Activity (SiHa [16]): 0.68%
- Activity (SiHa [17]): Dose-Dependent Effect
- CI (SiHa [19]): 0.23
- CI (SiHa [20]): 1.04
- CI (SiHa [21]): 0.8
- CI (SiHa [22]): 0.13
- viability at 1 µM (SiHa [23]): 59%
- CI (SiHa [24]): 1.45
- Activity (SiHa [26]): 0.27%
- CI (SiHa [27]): 0.24
- Activity (SiHa [28]): Active
- TGI (SiHa [29]): Active
- CI (SiHa [30]): 0.17
- CI (SiHa [31]): 0.19
- CI (SiHa [32]): 0.3
